Measured values published in paper PMC3277506, “Extra-Renal Elimination of Uric Acid via Intestinal Efflux Transporter BCRP/ABCG2” (PLoS ONE, 2012).
Where “and” joins values, the source holds several entries; their conditions need not be identical. Equal entries are not always repeated.

What was measured:
hBCRP [1] = target: T1, hBCRP (Homo sapiens, UniProt Q9UNQ0); set-up: method as in PMID 20368174; details: read-out: Km of uric acid to hBCRP; cited from earlier work
T1 construct: purchased GenoMembrane Inc. (Yokohama, Japan); host or cells: Sf9 cells
T1 sequence (Q9UNQ0 1-655): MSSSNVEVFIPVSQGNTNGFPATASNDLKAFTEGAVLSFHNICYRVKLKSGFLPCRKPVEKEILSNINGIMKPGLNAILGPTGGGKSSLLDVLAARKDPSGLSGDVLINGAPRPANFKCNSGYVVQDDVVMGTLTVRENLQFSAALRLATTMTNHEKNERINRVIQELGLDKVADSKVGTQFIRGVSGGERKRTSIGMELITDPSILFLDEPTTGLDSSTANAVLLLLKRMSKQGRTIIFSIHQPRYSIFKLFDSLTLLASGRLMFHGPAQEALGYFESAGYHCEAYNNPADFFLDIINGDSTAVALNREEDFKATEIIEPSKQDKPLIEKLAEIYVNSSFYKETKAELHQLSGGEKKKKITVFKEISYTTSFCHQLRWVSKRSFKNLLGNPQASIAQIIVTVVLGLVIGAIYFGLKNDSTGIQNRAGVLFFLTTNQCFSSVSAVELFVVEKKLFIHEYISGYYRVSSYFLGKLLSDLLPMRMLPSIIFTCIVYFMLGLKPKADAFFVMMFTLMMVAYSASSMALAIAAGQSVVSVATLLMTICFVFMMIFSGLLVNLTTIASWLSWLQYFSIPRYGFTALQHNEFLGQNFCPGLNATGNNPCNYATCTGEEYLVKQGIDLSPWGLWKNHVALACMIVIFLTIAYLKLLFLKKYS

[2] = Bidirectional transcellular transport of [14C]uric acid in Caco-2 cells; format: in vitro ADME, human; details: human, Control (no inhibitor)
Experimental: Caco-2 cells were obtained from the American Type Culture Collection (Rockville, MD). Caco-2 cells were cultured in Dulbecco's modified Eagle's medium (D-MEM) (Invitrogen, Carlsbad, CA) supplemented with 10% (v/v) fetal bovine serum (Invitrogen), 100 units/mL benzylpenicillin, 100 µg/mL streptomycin, 1% (v/v) MEM non-essential amino acid solution (Invitrogen) at 37°C under an atmosphere of 5% CO2 in air. For bidirectional transport studies, Caco-2 cells were cultured on Transwell filter membrane inserts (BD Falcon, surface area 0.9 cm^2 and pore size 3 µm) at a density of 6.4×10^4 cells/cm^2 for 21 days before use for each experiment. […] Inhibitor was added to only apical side. Transport of [^14C]uric acid was measured in two directions, namely apical (AP)-to-basal (BL) and BL-to-AP directions. An aliquot of transport buffer was obtained from the donor side at 5 min for measurement of initial concentration, and from the receiver side at 30, 60, 90 and 120 min. Transport studies were performed at 37°C and pH 7.4.
The apparent permeability (Papp, cm/sec) of [^14C]uric acid across the cell monolayer was calculated using the following equation: [drawing 4] where Q is the amount of [^14C]uric acid transported over time t. Cd is the initial concentration in the donor side and A is the surface area of membrane.

hBCRP [3] = target: T1, hBCRP; assay: [14C]uric acid uptake by hBCRP-expressing membrane vesicles; format: biochemical; details: [14C]uric acid 20 µM, 5 min, 37°C, 4 mM ATP or AMP
Experimental: hBCRP/rBcrp, hMRP2/rMrp2, or hMDR1-expressing membrane vesicles prepared from Sf9 cells were purchased from GenoMembrane Inc. (Yokohama, Japan). Uptake experiments were conducted as described previously. Briefly, after a pre-incubation for 5 min at 37°C, membrane vesicles (50 µg protein/50 µL final reaction volume) were incubated for 5 min at 37°C in the presence of 4 mM ATP or AMP in assay buffer (1 M KCl, 1 M MgCl2, and 100 mM MOPS-Tris, pH 7.0) containing [^14C]uric acid (1 µCi/mL). The uptake reaction was terminated by adding 1 mL ice-cold washing buffer (1 M KCl, and 100 mM MOPS-Tris, pH 7.0) to the membrane solution, and the mixture was rapidly filtered through a nitrocellulose filter (0.45 µm pore size, Millipore, Bedford, MA). The filters were washed twice with 5 mL ice-cold washing buffer. The filters were dried and dissolved in Clearsol-I for quantitation of radioactivity.

[4] = Clearance of endogenous uric acid (urine, bile, estimated intestine) in oxonate-treated rats; format: in vivo, rat
Experimental: Male Wistar rats (280±30 g body weight) used in the present study were treated with potassium oxonate, a uric acid oxidase (uricase) inhibitor. Oxonate-treated rats were established as described previously, [48]. Briefly, rats were anesthetized with 50% urethane (2 mL/kg) and infused with 0.9% NaCl, 0.5% oxonate and 4% mannitol solution from the femoral vein at the flow rate of 3 mL/hr. As a bolus, 0.9% NaCl, 1.5% oxonate and 4% mannitol solution was administered from the jugular vein at 6 mL/kg. After equilibration for 80 min, blood, urine and bile samples were collected at 20-min intervals. When [^14C]uric acid (2 µCi/rat) was used, it was intravenously injected from the jugular vein after oxonate treatment for 80 min. In order to suppress the uricolysis of [^14C]uric acid by intestinal flora, animals received orally non-absorbed antibiotics, polymyxin B, kanamycin, and vancomycin at daily doses of 50, 50 and 20 mg/kg, respectively, for 7 days before this animal study. Urine and bile were collected at 20-min intervals, and blood samples were drawn at 1, 5, 10, 20, 40, 60, 80, 100 and 120 min. Urine and bile were collected from bladder and bile ducts, respectively, and blood from the jugular vein. In mice, urine was collected for 24 hours by using metabolic cages (Natsume, Tokyo, Japan).
The following equation was used to calculate intestinal secretory clearance (µL/min/cm loop) and estimated total intestinal secretory clearance (CLintestine, estimated) (mL/min): [drawing 1] [drawing 2] [drawing 3] where A is the amount of uric acid secreted into the intestinal lumen of each loop for 60 min, L is the length of the intestine, and AUC is area under the plasma concentration-time curve.
Concentrations of uric acid in plasma, urine, bile, and intestinal content were analyzed by means of HPLC. Briefly, 80 µL 0.41% HClO4 was added to 40 µL of sample and mixed well. The sample was kept 4°C for 30 min. An aliquot was centrifuged at 15,000 rpm for 5 min at 4°C to separate denatured proteins. […] Uric acid was detected at 284 nm. […]

efflux ratio at 120 min ([2]; Caco-2, pH 7.4, BL-to-AP / AP-to-BL permeability): 2.13 ± 0.19
Papp A→B at 120 min ([2]; Caco-2 monolayer, 37°C, pH 7.4, read-out: Permeability AP to BL): 0.81 ± 0.02 ×10⁻⁶ cm/s
Papp B→A at 120 min ([2]; Caco-2 monolayer, 37°C, pH 7.4, read-out: Permeability BL to AP): 1.73 ± 0.11 ×10⁻⁶ cm/s
Uptake of uric acid in the presence of ATP versus AMP (hBCRP [3]): significantly higher
CLintestine, estimated (total intestinal secretory clearance) ([4]; from closed loop clearance and intestinal length): 0.15 mL/min
CL renal ([4]; male, Wistar, rat, urine (relative to plasma AUC), up to 60 min, amount excreted / plasma AUC, read-out: CLrenal of endogenous uric acid): 0.5 ± 0.06 mL/min
CLbile of endogenous uric acid ([4]; up to 60 min, amount excreted / plasma AUC): 0.02 mL/min and 0.02 ± 0.002 mL/min
Compound: O=c1[nH]c(=O)c2[nH]c(=O)[nH]c2[nH]1 [uric acid]
Km (hBCRP [1]): 8.24 mM
